The results in this text go back to patent publication US5654315A, “Quinuclidine compounds useful in treating diseases” (Imperial Chemical Industries PLC, priority 1991, dated 1997).

Molecules are shown by their SMILES. pIC50: −log10 of the molar value.

The target in one experiment is T1, Squalene synthase (Rattus norvegicus, UniProt Q02769).
T1 construct: rat liver microsomal protein; from tissue; host or cells: rat liver microsomes
T1 sequence (Q02769 1-416): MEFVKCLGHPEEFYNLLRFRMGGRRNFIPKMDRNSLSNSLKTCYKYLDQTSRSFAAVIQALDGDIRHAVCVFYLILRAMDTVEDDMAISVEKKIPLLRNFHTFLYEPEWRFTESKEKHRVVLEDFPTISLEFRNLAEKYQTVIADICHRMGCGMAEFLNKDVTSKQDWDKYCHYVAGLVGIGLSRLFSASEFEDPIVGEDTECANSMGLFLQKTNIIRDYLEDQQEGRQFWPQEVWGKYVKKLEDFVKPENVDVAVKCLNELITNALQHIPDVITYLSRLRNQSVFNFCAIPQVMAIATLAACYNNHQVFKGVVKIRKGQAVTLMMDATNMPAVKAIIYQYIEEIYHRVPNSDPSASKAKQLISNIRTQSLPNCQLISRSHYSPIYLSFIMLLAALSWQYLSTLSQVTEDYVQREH
As to the kind of experiment: Inhibition of squalene synthase (formation of squalene from tritiated farnesyl pyrophosphate, rat liver microsomes). The experiment is classed as biochemical. As to conditions: rat liver microsomal protein; 20 μM 1-[3H]-farnesyl pyrophosphate; 15 minutes; 37° C.; read-out: IC50 (concentration which results in a 50% inhibition of squalene production). Here is the method:
(a) Inhibition of Squalene synthase
In this test, the ability of a compound to prevent the formation of squalene from a radioactive substrate (tritiated farnesyl pyrophosphate) is assessed.
The test compound is incubated at a concentration of 25 micromolar in 200 μl of a buffered solution containing potassium phosphate (50 mM), MgCl2 (4.95 mM), KF (9.9 mM), NADPH (0.9 mM) and rat liver microsomal protein (20 μg). Rat liver microsomes are prepared by the method described in published European Patent Application No. 324,421 and stored in liquid nitrogen prior to assay. Assay vials are kept at 37° C. throughout the incubation.
The reaction is started with the addition of the substrate (1-[^3 H]-farnesyl pyrophosphate), final concentration 20 μM, and stopped after 15 minutes reaction time with the addition of 50 μl of 4% KOH. The reaction products are separated from unreacted substrate after application to a C-18 octadecyl 1ccBond column (Analytichem Int product No. 617101). An aqueous fraction is eluted with 250 μl of 0.1M KOH. Squalene is then eluted with 1.0 ml 10% ethyl acetate in hexane and radioactivity determined. The difference in radioactivity in the presence and absence of the test compound is used to determine the level of inhibition. […] The IC50 can then be determined from a plot of percentage inhibition against concentration of test compound.

The test system of experiment [1] is de novo hepatic cholesterol synthesis. Description: Acute rat cholesterol synthesis assay (de novo hepatic cholesterol synthesis from 14C-acetate). As to conditions: female rats, oral gavage, ip or iv (route not given), 14C-acetate ip 1 hour after dosing. Type of experiment: in vivo. On the procedure: (b) Acute rat cholesterol synthesis assay.
This is an acute in vivo test in the rat to measure de novo hepatic cholesterol synthesis from exogenously administered ^14 C-acetate.
Female rats (35-55 g) are housed in reverse lighting conditions (red light from 0200h-1400h) for a period of about 2 weeks prior to test. Animals are allowed free access to chow and drinking water throughout this period. At test, animals should weigh 125-150 g.
Test compounds may be administered by oral gavage, dissolved or suspended in 0.5% polysorbate, or by ip or iv dosing. Control animals receive vehicle alone. After 1 hour the rats are injected ip with 25 μCi [2-^14 C]-acetate (NEN DUPONT. specific activity, 45-60 mCi/mmol NEC-085H, or AMERSHAM specific activity, 50-60 mCi/mmol CFA 14) in a volume of 0.25 ml saline (100 μCi/ml). After a further hour, rats are terminally anaesthetised with halothane and a blood sample obtained from the abdominal vena cava.
1 ml of plasma is lyophilised and then saponified in 2 ml ethanolic KOH (1 part 33% KOH, 9 parts ethanol) at 75° C. for 2 hours. After addition of an equal quantity of water, non-saponifiable lipids are extracted with two 5 ml volumes of hexane. The hexane extracts are evaporated to dryness and the residues dissolved in ethanol to determine cholesterol specific radioactivity. EC50 values can be determined in the standard way.

On to `c1ccc(-c2ccc(CNC3CN4CCC3CC4)cc2)cc1` (centres unmarked) [Example 5, 3-[(biphenyl-4-ylmethyl)amino]quinuclidine], for which the pIC50 on Squalene synthase is 6.85.
The compound `Oc1ccc(-c2ccc(OCC3(O)CN4CCC3CC4)cc2)cc1` (centres unmarked) [Example 17, 3-(4'-hydroxybiphenyl-4-yloxymethyl)quinuclidin-3-ol] displayed an ED50 in experiment [1] of 11 mg/kg.
